In US9597391B2, “Cyclic-dinucleotides and its conjugates as adjuvants and their uses in pharmaceutical compositions” (HELMHOLTZ_ZENTRUM FUER INFEKTIONSFORSCHUNG GMBH, priority 2005, dated 2017):

Legend:
Assay type in all cases: in vivo
[1] = test system: BALB/c (H-2d) mice; assay: Serum β-gal-specific IgG ELISA after i.n. or s.c. immunization with β-gal plus adjuvant; conditions: for β-gal specific IgG titer in sera, i.n. administration: β-gal 30 μg/dose with or without adjuvant 10 μg, end point titers (FIG. 11; FIG. 2)
Procedure: Experimental protocol: six-eight weeks-old female BALB/c (H-2d) mice were purchased from Harlan Winkelmann GmbH (Borchen, Germany) and treated in accordance with local and European Community guidelines. Groups of 5 mice each were immunized on day 1, 14 and 28 with 30 μg of β-gal (Boehringer, Mannheim, Germany), alone or as an admixture with 10 μg c-diGMP or with 10 μpg c-diAMP. For intranasal (i.n.) immunization, 10 μl were applied to each naris, whereas for the s.c. injection β-gal with or without c-diGMP or c-diAMP was resuspended in a volume of 20 μl PBS per animal. Serum samples were collected at day 38 after immunization and stored at −20° C. prior to determination of β-gal-specific antibodies. 96-well Nunc-Immuno MaxiSorp assay plates (Nunc, Roskilde, Denmark) were coated with 100 μl of β-gal (Boehringer, Mannheim, Germany) at 5 μg/ml in 0.05 M carbonate buffer (pH 8.2) per well. Serial two-fold dilutions of sera in PBS with 1% BSA and 0.05% Tween 20 were added (100 μl/well), and plates incubated for 16h at 37° C. After washing, biotinylated γ-chain-specific goat anti-mouse IgG (Sigma Chemie, Deisenhofen, Germany) was added, and plates were incubated for an additional 1 h at 37° C. After four washes, 100 μl of peroxidase-conjugated streptavidin (Pharmingen) was added to cells and plates incubated at 37° C. for 30 min. After four washes, reactions were developed with ABTS in 0.1 M citrate-phosphate buffer (pH 4.35) containing 0.01% H2O2. Results for c-diGMP are shown as OD405 values after serial two-fold dilutions (FIG. 2). […] The effect of c-diGMP as an adjuvant was independent of the route of administration.
In contrast, in the presence of c-diAMP, i.n. administration of β-gal induced very high titers of specific IgG in all mice with titers higher than 500,000 (FIG. 11).
In view of the above in vitro results, additional in vivo studies have been conducted. […] Thus, the capacity of c-diGMP and c-diAMP, respectively, to stimulate efficient humoral immune responses was evaluated, by determining the serum titers of β-gal-specific antibodies in vaccinated mice.

[2] = test system: spleen cells; assay: ELISPOT of cytokine producing spleen cells from vaccinated mice; conditions: for expression of various cytokines: administered as an adjuvant (FIG. 10); for splenic IL-2 producing cells / splenic IL-4 producing cells: i.n. and s.c. route, restimulation with β-Gal protein; for antigen-specific IFNγ secreting cells / antigen-specific IL-2 secreting cells / antigen-specific IL-4 secreting cells: mice receiving adjuvant; for number of splenic IFNγ producing cells, parenteral vaccination: s.c., restimulation with MHC class I-restricted β-Gal peptide (CD8 epitope) (FIG. 10)
Procedure: Experimental protocol: Spleens from vaccinated mice were removed and pooled for analysis of cellular immune responses. The protocol for vaccination was identical to the protocol described in Example 2. Cells were grown in RPMI 1640 supplemented with 10% fetal calf serum, 100 U/ml of penicillin, 50 μg/ml of streptomycin, 5×10^−5 M 2-mercaptoethanol and 1 mM L-glutamine (GIBCO BRL, Karlsruhe, Germany) and maintained at 37° C. in a humidified 5% CO2 atmosphere. […]
For coating ELISPOT plates, said plates were incubated with 100 μl/well of purified capture antibody (10 μg/ml in coating buffer) at 4° C. overnight. After 6× washing steps, the plates were blocked with 200 μl/well of complete RPMI-1640 at room temperature for 1 hour. The activated cells were seeded at 100 μl per well and incubate at 37° C., in a 5% CO2 humidified incubator for 24 hours or 48h hours. After 5× washing steps with washing buffer and 1× step with distilled water, 100 μl/well of the biotinylated detection antibody with a concentration of 1 μg/ml in Assay Diluent was added and incubated at room temperature for 2 hrs. After further washing steps 100 μl/well of the AV-HRP at 1/1000 dilution in Assay Diluent was added and incubated at room temperature for 30 minutes. After further washing steps 100 μl/well of AEC Substrate Solution was added and developed at room temperature for 10-60 minutes until visible spots appeared. After washing steps with (3×) with 200 μl/well distilled water, the plates were air-dried and analyzed by counting the spots by an ELISPOT reader. Each concentration was tested in triplicates.

[3] = test system: BALB/c (H-2d) mice; assay: Isotype ELISA of β-gal-specific IgG1 and IgG2a in sera of vaccinated mice
Procedure: Isotyp ELISA: 96-well Nunc-Immuno MaxiSorp assay plates (Nunc, Roskilde, Denmark) were coated with 100 μl of β-gal (Boehringer, Mannheim, Germany) at 5 μg/ml in 0.05 M carbonate buffer (pH 9,6) per well. Serial two-fold dilutions of sera or lavages in PBS with 1% BSA and 0.05% Tween 20 were added (100 μl/well), and plates incubated for 2 h at 37° C. After washing, biotin-conjugated rat anti-mouse IgG1 or IgG2a (Pharmingen, Hamburg, Germany) were added to determine IgG subclasses. Plates were incubated for an additional 1 h at 37° C. After four washes, 100 μl of peroxidase-conjugated streptavidin (Pharmingen) was added to cells and plates incubated at 37° C. for 30 min. After four washes, reactions were developed with ABTS in 0.1 M citrate-phosphate buffer (pH 4.35) containing 0.01% H2O2. To determine the concentration of IgG subclasses in serum, standard curves were obtained by coating the wells with an isotype-specific goat anti-mouse IgG, and then by incubating with purified mouse IgG1 or IgG2 antibodies (Dianova, Hamburg, Germany).
The pattern of the different subclasses of the β-gal antigen-specific IgG isotypes present in the sera of vaccinated mice is shown in FIG. 12. […] The protocol for vaccination was identical to the protocol described in Example 3. […] The data represents the average titer of a group of 5 animals.

[4] = i.n., average titer of 5 animals (FIG. 12A)
[5] = s.c., average titer of 5 animals (FIG. 12B)

SMILES	β-gal specific IgG titer in sera, i.n. administration [1]	expression of various cytokines [2]	splenic IL-2 producing cells [2]	splenic IL-4 producing cells [2]	antigen-specific IFNγ secreting cells [2]	antigen-specific IL-2 secreting cells [2]	antigen-specific IL-4 secreting cells [2]	number of splenic IFNγ producing cells, parenteral vaccination [2]	β-gal specific IgG1 in sera, intranasal [3, 4]	β-gal specific IgG2a in sera, intranasal [3, 4]	β-gal specific IgG1 in sera, subcutaneous [3, 5]	β-gal specific IgG2a in sera, subcutaneous [3, 5]	β-gal specific IgG titer in sera ([1]; 30 μg β-gal + 10 μg adjuvant, day 1, 14, 28, serum day 38, independent of route (i.n., s.c.), FIG. 2, FIG. 3)
Nc1ncnc2c1ncn2[C@@H]1O[C@@H]2COP(=O)(O)O[C@H]3[C@@H](O)[C@H](n4cnc5c(N)ncnc54)O[C@@H]3COP(=O)(O)O[C@H]2[C@H]1O [c-diAMP, cyclic bis(3′-5′)diadenylic acid]	higher than 500,000	increased expression	strong expression	strong expression	increased in number	increased in number	increased in number	increment	strongly increased	strongly increased	strongly increased	strongly increased	–
Nc1nc2c(ncn2[C@@H]2O[C@@H]3COP(=O)(O)O[C@H]4[C@@H](O)[C@H](n5cnc6c(=O)[nH]c(N)nc65)O[C@@H]4COP(=O)(O)O[C@H]3[C@H]2O)c(=O)[nH]1 [c-diGMP, cyclic bis(3′-5′)diguanylic acid]	increased expression	increased expression	strong expression	strong expression	increased in number	increased in number	increased in number	increment	–	–	–	–	remarkably increased
